Data on 4 molecules can be found in publication PMC11808136, “Screening and identification of host signaling pathways for alleviating influenza-induced production of pro-inflammatory cytokines, IP-10, IL-8, and MCP-1, using a U937 cell-based influenza model” (Frontiers in Microbiology, 2025).

For data set [1], the system named is IP-10 production in influenza virus-infected U937 cells (H3N2). Nature of the data set: cells. The class given is cell-based, Human.
The nature of a further data set: in vitro. As to conditions: human.
Data set [2] relates to IL-8 production in influenza virus-infected U937 cells (H3N2). The data set can be described thus: cells. The class given is cell-based, Human.
Data set [3] concerns IP-10 production in influenza virus-infected U937 cells (H7N8). The data set can be described thus: cells. It counts as cell-based, Human.
The test system of data set [4] is IL-8 production in influenza virus-infected U937 cells (H7N8). Nature of the data set: cells. The class given is cell-based, Human.
The target in a further data set is T1, JAK2 (Homo sapiens, UniProt O60674).
T1 construct: purchased KinaseProfiler (Eurofin, Brussels, Belgium)
T1 sequence (O60674 whole entry): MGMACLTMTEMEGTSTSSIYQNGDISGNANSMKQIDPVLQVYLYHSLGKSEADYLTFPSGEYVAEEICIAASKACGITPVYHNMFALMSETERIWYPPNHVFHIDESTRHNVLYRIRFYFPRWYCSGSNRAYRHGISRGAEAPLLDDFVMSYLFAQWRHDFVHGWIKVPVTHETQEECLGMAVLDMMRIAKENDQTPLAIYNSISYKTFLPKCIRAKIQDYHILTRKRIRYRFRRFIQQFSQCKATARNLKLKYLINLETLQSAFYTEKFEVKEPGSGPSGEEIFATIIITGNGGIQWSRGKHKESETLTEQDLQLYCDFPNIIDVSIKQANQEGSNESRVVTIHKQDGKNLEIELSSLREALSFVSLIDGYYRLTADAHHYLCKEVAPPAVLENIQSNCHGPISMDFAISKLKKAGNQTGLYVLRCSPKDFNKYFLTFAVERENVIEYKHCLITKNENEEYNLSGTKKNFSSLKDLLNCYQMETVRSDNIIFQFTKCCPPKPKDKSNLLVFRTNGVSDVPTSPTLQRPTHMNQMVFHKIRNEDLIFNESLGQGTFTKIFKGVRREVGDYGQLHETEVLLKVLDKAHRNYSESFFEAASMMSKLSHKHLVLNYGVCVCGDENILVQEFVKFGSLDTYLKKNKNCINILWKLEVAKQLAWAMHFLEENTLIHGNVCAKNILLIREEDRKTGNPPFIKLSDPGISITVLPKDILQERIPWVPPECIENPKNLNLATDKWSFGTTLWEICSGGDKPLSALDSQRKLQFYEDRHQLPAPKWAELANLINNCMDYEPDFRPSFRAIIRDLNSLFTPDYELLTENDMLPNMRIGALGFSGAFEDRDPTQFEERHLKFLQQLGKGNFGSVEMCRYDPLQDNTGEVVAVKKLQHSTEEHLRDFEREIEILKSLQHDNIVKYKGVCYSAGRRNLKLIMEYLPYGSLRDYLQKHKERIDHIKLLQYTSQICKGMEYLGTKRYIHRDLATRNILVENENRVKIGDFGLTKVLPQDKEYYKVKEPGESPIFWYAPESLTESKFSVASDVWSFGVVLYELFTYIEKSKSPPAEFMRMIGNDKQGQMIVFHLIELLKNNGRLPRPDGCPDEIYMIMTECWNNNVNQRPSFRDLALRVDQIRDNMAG
Nature of the data set: Cell-free kinase activity assay, JAK2. It counts as biochemical. As to conditions: cell-free kinase assay.

Data set [5] has as its system IP-10 production in influenza virus-infected U937 cells (H1N1). The data set can be described thus: cells. The class given is cell-based.
For data set [6], the system named is IL-8 production in influenza virus-infected U937 cells (H1N1). Nature of the data set: cells. The settings on record: for EC50: read-out: EC50 IL-8. It counts as cell-based, Human.
Data set [7] relates to STAT1 phosphorylation (p-STAT1). It counts as cell-based, Human.
For a further data set, the target named is JAK1 (Homo sapiens, UniProt P23458). The data set can be described thus: Cell-free kinase activity assay, JAK1.
JAK1, sequence (P23458 whole entry): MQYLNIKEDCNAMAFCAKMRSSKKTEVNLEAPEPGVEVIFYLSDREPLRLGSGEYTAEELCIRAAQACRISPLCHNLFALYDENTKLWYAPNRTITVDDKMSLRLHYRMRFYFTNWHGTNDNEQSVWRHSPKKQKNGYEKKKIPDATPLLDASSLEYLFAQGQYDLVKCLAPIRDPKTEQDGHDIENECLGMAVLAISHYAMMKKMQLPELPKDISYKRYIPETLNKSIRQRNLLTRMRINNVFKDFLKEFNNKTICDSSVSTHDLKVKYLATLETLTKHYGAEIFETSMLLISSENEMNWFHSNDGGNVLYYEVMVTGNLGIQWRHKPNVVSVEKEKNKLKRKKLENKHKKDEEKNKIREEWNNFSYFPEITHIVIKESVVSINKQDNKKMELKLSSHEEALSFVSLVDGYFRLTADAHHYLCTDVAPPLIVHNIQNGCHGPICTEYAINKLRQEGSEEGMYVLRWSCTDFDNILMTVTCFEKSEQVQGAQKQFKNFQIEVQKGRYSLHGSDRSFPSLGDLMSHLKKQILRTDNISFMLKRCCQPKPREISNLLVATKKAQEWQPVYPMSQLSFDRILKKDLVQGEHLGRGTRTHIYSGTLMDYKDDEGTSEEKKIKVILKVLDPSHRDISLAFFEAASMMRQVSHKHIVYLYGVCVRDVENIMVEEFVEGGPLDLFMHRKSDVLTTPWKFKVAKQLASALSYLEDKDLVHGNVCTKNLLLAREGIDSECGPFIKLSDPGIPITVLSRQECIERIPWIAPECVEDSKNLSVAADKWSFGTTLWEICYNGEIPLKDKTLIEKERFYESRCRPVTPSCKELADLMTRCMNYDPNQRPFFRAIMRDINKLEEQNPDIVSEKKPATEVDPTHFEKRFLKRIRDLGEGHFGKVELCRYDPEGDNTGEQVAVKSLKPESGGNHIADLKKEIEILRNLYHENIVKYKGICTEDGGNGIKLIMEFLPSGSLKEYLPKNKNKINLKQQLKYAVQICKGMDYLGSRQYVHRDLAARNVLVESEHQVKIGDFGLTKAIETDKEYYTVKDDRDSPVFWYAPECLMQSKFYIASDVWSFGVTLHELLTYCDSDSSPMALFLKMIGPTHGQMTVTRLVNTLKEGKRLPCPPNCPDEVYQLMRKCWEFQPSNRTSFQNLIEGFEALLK
Data set [8] relates to MCP-1 production in influenza virus-infected U937 cells (H3N2). The data set can be described thus: cells. The class given is cell-based, Human.
The test system of data set [9] is phosphorylation of p38 (p-p38). Nature of the data set: Western blot of phosphorylated p38 in influenza-infected U937 cells. It counts as cell-based, Human. The settings on record: for phosphorylation of p38: 24 h post-infection, western blot, cellular model. The method, then:
(§1) Figure 6 TKIs repress cytokine production by suppressing the p38 pathway. […] Cells were lysed 24 h post-infection, and the levels of phosphorylated p38 and ERK (p-p38 and p-ERK) and total p38 and ERK were assessed by western blot. A quantification of phosphorylated p38 levels for each drug treatment was included in the right panel of each figure.
(§2) Cells were homogenized in RIPA lysis buffer containing a 1% protease inhibitor cocktail (Roche) to extract total protein. Equal amounts of protein homogenates were separated by SDS-PAGE (Bio-Rad) and transferred onto polyvinylidene difluoride membranes (pore size […]; Bio-Rad). The membranes were then blotted with monoclonal antibodies against GAPDH (1:1000, ZSGB-BIO), p38, phosphor-p38, ERK, phospho-ERK, STAT1, phosphor-STAT1 (1:1000; Cell Signaling Technology), STAT3, and phosphor-STAT3 (1:1000; Cell Signaling Technology), respectively. Protein levels were detected with horseradish peroxidase-tagged secondary antibodies and enhanced chemiluminescence western blot reagents (Advansta), followed by visualization using an enhanced chemiluminescence system (AlphaEase FluorChem System, Alpha Innotech Corp.). Bands were quantified using ImageJ (Ver. 1.46; NIH, Bethesda, MD).
In general terms: Immunoblotting shows a protein as a band on a membrane.

The target of another data set is p38 (Homo sapiens, UniProt Q16539). Nature of the data set: Cell-free kinase activity assay, p38. It counts as biochemical.
p38, sequence (Q16539 whole entry): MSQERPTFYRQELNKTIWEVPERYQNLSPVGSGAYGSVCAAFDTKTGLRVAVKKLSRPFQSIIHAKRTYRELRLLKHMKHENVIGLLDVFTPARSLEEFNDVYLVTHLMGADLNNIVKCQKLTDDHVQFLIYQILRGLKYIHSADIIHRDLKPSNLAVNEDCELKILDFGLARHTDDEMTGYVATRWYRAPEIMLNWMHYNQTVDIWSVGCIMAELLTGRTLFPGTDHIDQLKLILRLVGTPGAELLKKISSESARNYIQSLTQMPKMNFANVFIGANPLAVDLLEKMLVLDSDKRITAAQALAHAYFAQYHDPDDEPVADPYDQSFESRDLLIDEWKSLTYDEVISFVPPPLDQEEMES
For data set [10], the system named is MCP-1 production in influenza virus-infected U937 cells (H1N1). The data set can be described thus: cells. The class given is cell-based.
The subject of data set [11] is MCP-1 production in influenza virus-infected U937 cells (H7N8). Nature of the data set: cells. It counts as cell-based, Human.
The subject of data set [12] is ERK phosphorylation (p-ERK). Nature of the data set: Western blot of phosphorylated ERK in influenza-infected U937 cells. It counts as cell-based, Human. The method, then:
Figure 5 Raf/MEK/ERK and p38 signal pathways are involved in the regulation of cytokines in U937 cells. (A–C) Determination of inhibition rates on IL-8, IP-10, and MCP-1 by each compound in the MAPK group and the distribution of targets between subgroups. U937 cells were infected with influenza A/PuertoRico/8/1934 virus (MOI = 0.1) in the presence of 10 μM of each inhibitor and then incubated at 37°C for 48 h. The distribution of the targets of all the inhibitors in the MAPK group was then analyzed and categorized into subgroups. […] The supernatants were harvested 48 h post-infection, and the levels of IL-8, MCP-1, and IP-10 were measured by AlphaLISA. (E) The cells were treated as in (C) except being lysed 24 h post-infection, and the levels of phosphorylated STAT1, p38, ERK (p-STAT1, p-p38, p-ERK), total STAT1, p38, ERK, and viral protein HA were assessed by western blot. (F) A quantitative analysis of the relative levels of the phosphorylated STAT1, p38, ERK (p-STAT1, p-p38, p-ERK) in (E). The data are representative of at least three independent experiments. n.s. no significance; *p < 0.05; **p < 0.01; ***p < 0.001.
as §1
as §2, with “The membranes were then blotted with monoclonal antibodies against GAPDH (1:1000, ZSGB-BIO), p38, phosphor-p38, ERK, phospho-ERK, STAT1, phosphor-STAT1 (1:1000; Cell Signaling Technology), STAT3, and phosphor-STAT3 (1:1000; Cell Signaling Technology), respectively.” left out

Data set [13] has as its system influenza virus infection. On the set-up: method as in Florence et al., 2018; Chen et al., 2019. The settings on record: without compromising viral titers; ref Florence et al., 2018; Chen et al., 2019; cited from earlier work.
[14] abbreviates: CC50, secondary screen, Supplemental Table 1.
Setting [15] is: Homo sapiens, U-937, read-out: EC50 IP-10.
[16] abbreviates: Homo sapiens, U-937, secondary screen, Supplemental Table 1.
Where [17] appears, read: Homo sapiens, U-937, read-out: IC50 p-p38.

Where two headings read alike, the source gives them in different places. Where only a bound is given, the exact number is not on record here.

For orientation: EC50 means the concentration that produces a half-maximal response. As usually defined, the IC50 is the concentration at which inhibition is half-maximal. In the case of `Cc1cc(Nc2nc(N[C@@H](C)c3ncc(F)cn3)ncc2Cl)n[nH]1` [AZD1480], the half-maximal effective concentration (EC50) in data set [1] (Homo sapiens, U-937) turned out to be 17 nM; in data set [2] (Homo sapiens, U-937), 7140 nM; in data set [3] (setting [15]), 57 nM; in data set [4] (Homo sapiens, U-937, read-out: EC50 IL-8) it was 215 nM; in data set [5] (setting [15]), 100 nM; in data set [5] (Homo sapiens, U-937; read-out: EC50 IP-10) it was 7690 nM. For the same molecule, the EC50 was found to be 110 nM in data set [6] (setting [16]); 7690 nM in data set [6] (Homo sapiens, U-937); 478 nM in data set [8] (Homo sapiens, U-937); 6250 nM in data set [10] (Homo sapiens, U-937, read-out: EC50 MCP-1, U937 cells infected with H1N1); 30 nM in data set [10] (Homo sapiens, U-937, read-out: EC50 MCP-1, secondary screen, Supplemental Table 1); 714 nM in [11] (Homo sapiens, U-937, read-out: EC50 MCP-1). In the data set “in vitro”, the CC50 at 48 h was 100000 nM. The CC50 in “in vitro” (setting [14]) was found to be 13500 nM. For the same molecule, the JAK2 activity entry at JAK2 is on record as “inhibited”. Besides, the IC50 is 7110 nM in data set [5] (Homo sapiens, U-937, read-out: IC50 IP-10); 7500 nM in data set [6] (Homo sapiens, U-937); 430 nM on JAK1; 5300 nM in data set [9] (setting [17]); greater than 100000 nM against p38 (p38 kinases in vitro); 6300 nM in data set [10] (Homo sapiens, U-937, read-out: IC50 MCP-1). The molecule also yielded a maximum non-toxic concentration with U937 cells (human) of 50 µM. Also, the STAT1 phosphorylation levels entry in data set [7] is “significantly reduced”. Also, the JAK1 activity entry on JAK1 (cell-free kinase assay) is recorded as “inhibited”. Also, the “phosphorylation of p38” value in [9] was “suppress”. Further, at p38 (cell-free), the “p38 kinase activity in vitro” value is “failed to inhibit”.

Regarding `Cc1ccc(Nc2ncc3c(n2)N(C)C(=O)N(c2cc(NC(=O)c4cccc(C(F)(F)F)c4)ccc2C)C3)cn1` [GNF-7], the EC50 in data set [1] amounted to 1 nM; in data set [2], 27 nM; in data set [3] (read-out: EC50 IP-10), 5 nM; in data set [4] (read-out: EC50 IL-8), 14 nM; in data set [5] (U937 cells infected with H1N1; read-out: EC50 IP-10) it was 71 nM; in data set [5] (secondary screen, Supplemental Table 1; read-out: EC50 IP-10), 20 nM. The EC50 in [6] is 19 nM; in data set [6] (secondary screen, Supplemental Table 1), less than 5 nM; in data set [8], 14 nM; in data set [10] (U937 cells infected with H1N1; read-out: EC50 MCP-1), 18 nM; in data set [10] (secondary screen, Supplemental Table 1; read-out: EC50 MCP-1), 10 nM; in [11] (read-out: EC50 MCP-1), 109 nM. Moreover, the IC50 in data set [6] was less than 20 nM; in data set [9] (phosphorylation of p38, western blot, Table 4, read-out: IC50 p-p38), 10 nM; in data set [10] (production of MCP-1 in U937 cells infected with influenza virus; Table 4; read-out: IC50 MCP-1), less than 20 nM. Besides, the CC50 in the data set with U937 cells was determined as 13600 nM; in the data set with U937 cells (U937 cells, Table 1 section H1N1), 13600 nM; with U937 cells (U937 cells, Table 1 section H3N2), 13600 nM. The molecule also returned a maximum non-toxic concentration in the data set on U937 cells of 1 µM. Further, in data set [7], the STAT1 phosphorylation levels entry was “significantly reduced”. The “phosphorylation level of ERK” value in data set [12] was “promoted”.

With `C=CC(=O)N1CCC[C@@H](n2nc(-c3ccc(Oc4ccccc4)cc3)c3c(N)ncnc32)C1` [Ibrutinib (PCI-32765), Ibrutinib], the “protection of mice from lethal influenza infection” value in data set [13] was “protecting mice from lethal influenza infection”. In the data set “in vitro” (setting [14]), this molecule registered a CC50 greater than 100000 nM. In addition, the EC50 in data set [6] (setting [16]) came out at 1220 nM.

Molecule `O=C(NOC[C@H](O)CO)c1ccc(F)c(F)c1Nc1ccc(I)cc1F` [PD0325901] showed a CC50 in the data set “in vitro” greater than 100000 nM. The EC50 was 690 nM in data set [5] (Homo sapiens, U-937, secondary screen, Supplemental Table 1; read-out: EC50 IP-10); less than 5 nM in [6] (setting [16]); 100 nM in data set [10] (Homo sapiens, U-937, secondary screen, Supplemental Table 1; read-out: EC50 MCP-1). Further, in data set [5] (at high concentrations, 48 h post-infection), the “secretion of IP-10” value is on record as “inhibit”. In addition, in data set [6], the “secretion of IL-8” value was “inhibited”. The IC50 in data set [6] (Homo sapiens, U-937) is less than 20 nM; in data set [9] (setting [17]) it was 10 nM; in data set [10] (Homo sapiens, U-937; read-out: IC50 MCP-1), less than 20 nM. In data set [7], the “phosphorylation of STAT1 proteins” value was “inhibit”. In addition, in [9], the “phosphorylation of p38” value is recorded as “suppress”. For the same molecule, the “secretion of MCP-1” value in data set [10] (different concentrations of PD0325901, 48 h post-infection) is recorded as “inhibited”. In data set [12] (24 h post-infection, western blot), the “phosphorylation level of ERK” value is given as “decreased”.
